This note sets out measurements from patent publication US11319300B2, “Polyfluoro-substituted aromatic heterocyclic derivative, pharmaceutical composition containing same, and applications thereof” (ZHEJIANG UNIVERSITY, priority 2017, dated 2022).

As a reminder, the IC50 is the concentration needed to halve the response being measured. A word on the Cmax: it is the maximum level reached in the sampled fluid or tissue. In general, Tmax refers to the time from dosing to the highest level.

Series [1] addresses T1, AKT1/PKBα (Homo sapiens, UniProt P31749).
T1 construct: purchased
Description: Akt1 enzyme inhibitory activity, AKT1/PKBα KinEASE FP Fluorescein Green Assay. The following applies: fluorescence polarization kit assay; read-out: Akt1 IC50 (grade). It counts as biochemical. How it is done:
Compound AZD5363 (NCT02208375, NCT02208375, NCT01625286), which have entered the clinical phase II study, was used as a positive control, and the compound was assayed against common tumour cell lines (human ovarian cancer cell line OVCAR-8 and human colon cancer cell line HCT-116) by MTT assay, at the same time, the akt1 enzyme inhibitory activity (IC50) was evaluated using a commercial Akt1 kit.
2) Test method for the inhibitory activity of the compound of the present invention against Akt1 enzyme:
The AKT1/PKBα KinEASE™ FP Fluorescein Green Assay (Kinase Green Fluorescence Detection System) was used to detect the inhibitory activity of the compound on AKT1/PKBα.
Fluorescence polarization detection protein kinase B employs the principle of a competitive reaction: a fluorescently labeled phosphorylated tracer and an unlabeled phosphorylated product produced by the reaction of protein kinase B will compete with the anti-serine antibody for binding. In a reaction mixture […], when a part of the fluorescent tracer binds to the antibody, it causes a higher polarization value. However, in the reaction solution mixture containing the phosphorylated product, less tracer binds to the antibody (the fluorescent tracer was replaced from the antibody) and the emitted signal was depolarized. Therefore, the change in polarization was directly related to the activity of protein kinase B in the reaction.
The compound of the present invention and the positive control AZD5363 were dissolved in dimethyl sulfoxide (DMSO) and diluted to a concentration of 50 μM. At room temperature, 0.25 μl of the compound sample and the positive control at a concentration of 50 μM were taken and added to the 384-well plate, and three parallel wells were set for each sample, and then 10 μl of STK Substrate 3, Working Solution, 5 μl AKT1/PKBα Working Solution, 10 μl ATP Working Solution were added to each sample well plate with vibrating gently and shaking for a few minutes. The reaction starts after 10 μl of ATP Working Solution was added to the well, and the reaction was timed at room temperature for 1 hour. After one hour, 5 μl of STK Stop Mix and 5 μl of STK Antibody Mix were added to each well respectively to stop the reaction. After the addition completes, it was allowed to stand at room temperature for four hours, and the polarization value of the sample was detected by the fluorescence polarization of the microplate reader (it was effective to detect its signal within 24 hours), and the inhibition rate of the compound was calculated by the polarization value, and then IC50 was calculated.
Four sets of controls were set in the experiment, namely Buffer Control Wells, Tracer Control Wells, No Enzyme Wells, and a blank dimethyl sulfoxide control. The resulting data was used to calculate the inhibition rate.
The activity of the compound was divided into three grades according to the size of the IC50 of the Akt inhibitory activity: “+++”, 1 nM<IC50<10 nM; “++”, 10 nM<IC50<50 nM; “+”, 50 nM<IC50.
In general terms: Polarisation of emitted light reports the rotation of a fluorescent probe.

Series [2] concerns HGC27. Description: Tumour cell proliferation inhibition, MTT assay, HGC27. It counts as cell-based, human. Conditions: Homo sapiens, HGC-27, 72 h. A general note: Tetrazolium assays rely on reduction of a dye to a coloured formazan, in cell work by metabolically active cells.
Series [3] has as its system CEM-C1. The series is described as follows: Tumour cell proliferation inhibition, MTT assay, CEM-C1. In kind it is cell-based, human. Conditions: Homo sapiens, CEM/C1, 72 h.
The nature of series [4]: Oral pharmacokinetic experiment in SD rats. It counts as in vivo. The following applies: oral administration. How it is done: […] The blood sampling times of the tail vein administered by intragastric administration were 0.25, 0.5, 1, 2, 4, 6, 8, 10, 24 hours; the times of blood collection by intravenous administration were 0.05, 0.1, 0.17, 0.5, 1, 2, 4, 6, 8, 10, 24 hours. 0.3 ml of whole blood was taken, and after centrifugation, 0.1 ml of plasma was taken and analysed by LC-MS.

The mark [5] stands for this setting: rat, in vivo, 20 mg/kg, mean n = 3.

T1 sequence (P31749 whole entry): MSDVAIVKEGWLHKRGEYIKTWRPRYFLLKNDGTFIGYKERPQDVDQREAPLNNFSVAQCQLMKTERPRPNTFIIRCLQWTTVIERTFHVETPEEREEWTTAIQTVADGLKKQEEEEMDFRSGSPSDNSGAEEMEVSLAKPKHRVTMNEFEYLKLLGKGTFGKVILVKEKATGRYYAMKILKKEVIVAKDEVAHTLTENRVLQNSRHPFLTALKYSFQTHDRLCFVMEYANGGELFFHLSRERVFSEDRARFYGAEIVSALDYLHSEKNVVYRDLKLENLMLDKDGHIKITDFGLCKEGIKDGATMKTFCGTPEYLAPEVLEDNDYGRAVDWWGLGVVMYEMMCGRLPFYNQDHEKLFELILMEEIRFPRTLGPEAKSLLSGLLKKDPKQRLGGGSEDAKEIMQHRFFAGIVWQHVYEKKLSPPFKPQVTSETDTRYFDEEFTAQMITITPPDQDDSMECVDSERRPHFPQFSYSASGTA

Consider `Cn1nccc1-c1ccc(C(=O)N[C@H]2CNCC[C@@H]2c2ccc(F)c(F)c2)c(F)c1` [VII-1b, 4-(1-methyl-1H-pyrazole-yl)-N-((3R,4R)-(3,4-difluorophenyl)piperidin-3-yl)-2-fluorobenzamide], for which, in series [1], the IC50 is 10 to 50 nM.

With `Cn1ncc(Cl)c1-c1ccc(C(=O)N[C@@H]2CNCC[C@H]2c2ccc(F)c(F)c2)c(F)c1` [VII-2, 4-(1-methyl-4-chloro-1H-pyrazole-yl)-N-((3S,4S)-(3,4-difluorophenyl)piperidin-3-yl)-2-fluorobenzamide], the IC50 in series [1] is 10 to 50 nM; in series [2], 70 nM.

For the compound `Cc1cnn(C)c1-c1ccc(C(=O)N[C@@H]2CNCC[C@H]2c2ccc(F)c(F)c2)c(F)c1` [VII-3, 4-(1,4-dimethyl-1H-pyrazole-yl)-N-((3S,4S)-4-(3,4-difluorophenyl)piperidin-3-yl)-2-fluorobenzamide], the figures for the IC50 in series [3], in series [1] and in series [2] were 160 nM, 10 to 50 nM and 90 nM, respectively.

As for `Cn1ncc(C2CC2)c1-c1ccc(C(=O)N[C@@H]2CNCC[C@H]2c2ccc(F)c(F)c2)c(F)c1` [VII-4], the IC50 in series [1] was more than 50 nM.

In the case of `Cn1ncc(Br)c1-c1ccc(C(=O)N[C@@H]2CNCC[C@H]2c2ccc(F)c(F)c2)c(F)c1` [VII-6, 4-(1-methyl-4-bromo-1H-pyrazole-yl)-N-((3S,4S)-(3,4-difluorophenyl)piperidin-3-yl)-2-fluorobenzamide], the IC50 is 150 nM in series [3], 10 to 50 nM in series [1] and 40 nM in series [2].

`Cn1nccc1-c1ccc(C(=O)N[C@@H]2CNCC[C@H]2c2c(F)c(F)cc(F)c2F)c(F)c1` [VII-9, 4-(1-methyl-1H-pyrazole-yl)-N-((3S,4S)-(2,3,5,6-tetrafluorophenyl)piperidin-3-yl)-2-fluorobenzamide]: the IC50 in series [3] was 210 nM; in series [1] it was 10 to 50 nM; in series [2], 80 nM.

Regarding `Cn1nccc1-c1cc(F)c(C(=O)N[C@@H]2CNCC[C@H]2c2ccc(F)c(F)c2)c(F)c1F` [VII-13, 4-(1-methyl-1H-pyrazole-yl)-N-((3S,4S)-4-(3,4-difluorophenyl)piperidin-3-yl)-2,3,6-trifluorobenzamide], in series [1], the IC50 was more than 50 nM.

Consider `Cn1nccc1-c1cc(F)c(C(=O)N[C@@H]2CNCC[C@H]2c2ccc(F)c(F)c2)c(Cl)c1` [VII-14], for which the half-maximal inhibitory concentration (IC50) in series [3] is 180 nM; in series [1], 10 to 50 nM; in series [2], 100 nM.

With `Cc1cc(-c2ccnn2C)cc(F)c1C(=O)N[C@@H]1CNCC[C@H]1c1ccc(F)c(F)c1` [VII-15, 4-(1-methyl-1H-pyrazole-yl)-N-((3S,4S)-4-(3,4-difluorophenyl)piperidin-3-yl)-2-methyl-6-fluorobenzamide], the IC50 in series [1] was more than 50 nM.

With `Cn1nccc1-c1cc(F)c(C(=O)N[C@@H]2CNCC[C@H]2c2ccc(F)c(F)c2)c(C(F)(F)F)c1` [VII-16, 4-(1-methyl-1H-pyrazole-yl)-N-((3S,4S)-4-(3,4-difluorophenyl)piperidin-3-yl)-2-trifluoromethyl-6-fluorobenzamide], the IC50 in series [3] was 110 nM; in series [1] it was 10 to 50 nM; in series [2] it was 80 nM.

On to `Cn1nccc1-c1ccc(C(=O)N[C@@H]2CNCC[C@H]2c2ccc(F)c(F)c2)c(F)c1F` [VII-17, 4-(1-methyl-1H-pyrazole-yl)-N-((3S,4S)-4-(3,4-difluorophenyl)piperidin-3-yl)-2,3-difluorobenzamide], for which the results for the IC50 in series [3], in series [1] and in series [2] were 90 nM, 10 to 50 nM and 40 nM, respectively.

Regarding `Cn1ncc(Cl)c1-c1ccc(C(=O)N[C@@H]2CNC[C@H]2c2ccc(F)c(F)c2)c(F)c1` [VII-19, 4-(1-methyl-4-chloro-1H-pyrazole-yl)-N-((3S,4R)-(3,4-difluorophenyl)pyrrolidin-3-yl)-2-fluorobenzamide], the results for the IC50 in series [3], in series [1] and in series [2] were 60 nM, 10 to 50 nM and 20 nM, respectively.

`Cn1nccc1-c1cc(F)c(C(=O)N[C@@H]2CNC[C@H]2c2ccc(F)c(F)c2)c(F)c1` [VII-21, 4-(1-methyl-1H-pyrazole-yl)-N-((3S,4R)-(3,4-difluorophenyl)pyrrolidin-3-yl)-2,6-difluorobenzamide]: the results for the IC50 in series [3], in series [1] and in series [2] were 150 nM, 10 to 50 nM and 80 nM, respectively.

In the case of `Cn1nccc1-c1ccc(S(=O)(=O)N[C@@H]2CNCC[C@H]2c2ccc(F)c(F)c2)c(F)c1` [VII-23, N-((3S,4S)-4-(3,4-difluorophenyl)piperidin-3-yl)-2-fluoro-4-(1-methyl-1H-pyrazol-5-yl)benzenesulfonamide], the IC50 in series [1] was more than 50 nM.

On to `Cn1ncnc1-c1ccc(C(=O)N[C@@H]2CNCC[C@H]2c2ccc(F)c(F)c2)c(F)c1` [VII-26], for which the figures for the IC50 in series [3], in series [1] and in series [2] were 70 nM, 10 to 50 nM and 70 nM, respectively.

For `CCn1nccc1-c1ccc(C(=O)N[C@@H]2CNCC[C@H]2c2ccc(F)c(F)c2)c(F)c1` [VII-27, 4-(1-ethyl-1H-pyrazole-yl)-N-((3S,4S)-4-(3,4-difluorophenyl)piperidin-3-yl)-2-fluorobenzamide], the IC50 in series [3] is 130 nM; in series [1], 10 to 50 nM; in series [2], 90 nM.

Regarding `O=C(N[C@@H]1CNCC[C@H]1c1ccc(F)c(F)c1)c1ccc(-c2ccnn2C2CC2)cc1F` [VII-28, 4-(1-cyclopropyl-1H-pyrazol-yl)-N-((3S,4S)-4-(3,4-difluorophenyl)piperidin-3-yl)-2-fluorobenzamide], the IC50 in series [3] was 100 nM; in series [1], 10 to 50 nM; in series [2], 50 nM.

With `[2H]C([2H])([2H])n1nccc1-c1ccc(C(=O)N[C@@H]2CNCC[C@H]2c2ccc(F)c(F)c2)c(F)c1` [VII-29, 4-(1-(methyl-d3)-1H-pyrazol-yl)-N-((3S,4S)-4-(3,4-difluorophenyl)piperidin-3-yl)-2 fluorobenzamide], the values for the IC50 in series [3], in series [1] and in series [2] were 60 nM, 10 to 50 nM and 40 nM, respectively.

Regarding `Cn1nccc1-c1ccc(C(=O)N[C@@H]2CNCC[C@H]2c2ccc(F)c(F)c2)c(F)c1.O=C(O)C(O)C(O)C(=O)O` [VII-33], in series [4] (20 mg/kg, mean n = 3), the “1/2” value worked out at 3.69 h, the AUC0-inf was determined as 2160 ng·h/mL and the AUC0-t is 1950 ng·h/mL. For the same compound, the “improvement of AUC0-t over VII-1a” value in series [4] (salt versus free form VII-1a) turned out to be 30%. In series [4] (setting [5]), the Cmax came out at 200 ng/mL and the Tmax turned out to be 4 h.
